Data set [1] relates to H23 cells. The experiment in a line: CellTiter-Glo (CTG) cell viability assay, H23 cells. It counts as cell-based. To be noted: Homo sapiens, NCI-H23, 72 h, sotorasib 40 nM, Compound (A) 120 nM, single agent or combination of both. How it is done: (§1) 20,000 H23 cells were incubated in a 96 well plate as a triplicate with 40 nM of sotorasib or 120 nM of Compound (A) as a single agent or the combination of both for 72 h (FIG. 2). 20,000 MiaPaca-2 cells were incubated in a 96 well plate as a triplicate with 350 nM of sotorasib or 1000 nM of Compound (A) as a single agent or the combination of both for 72 h (FIG. 3). 20,000 H358 cells were incubated in a 96 well plate as a triplicate with 10 nM of sotorasib or 300 nM of Compound (A) as a single agent or the combination of both for 72 h (FIG. 4). 20,000 SW837 cells were incubated in a 96 well plate as a triplicate with 12 nM of sotorasib or 1000 nM of Compound (A) as a single agent or the combination of both for 72 h (FIG. 5). For each cell line, the cell viability was assessed using a CellTiter-Glo® (CTG) assay.
On the technique in general: In ATP-based viability assays light output follows the ATP content of the culture.

Data set [2] relates to MiaPaca-2 cells. Description: CellTiter-Glo (CTG) cell viability assay, MiaPaca-2 cells. It counts as cell-based. The note with it: Homo sapiens, MIA PaCa-2, 72 h, sotorasib 350 nM, Compound (A) 1000 nM, single agent or combination of both. How it is done: as §1
Data set [3] concerns H358 cells. Description: CellTiter-Glo (CTG) cell viability assay, H358 cells. The format is cell-based. The note with it: Homo sapiens, NCI-H358, 72 h, sotorasib 10 nM, Compound (A) 300 nM, single agent or combination of both. How it is done: as §1
Data set [4] has as its system SW837 cells. The experiment in a line: CellTiter-Glo (CTG) cell viability assay, SW837 cells. The format is cell-based. To be noted: Homo sapiens, 72 h, sotorasib 12 nM, Compound (A) 1000 nM, single agent or combination of both. How it is done:
as §1

In data set [5] the test system is SW837 cells. Description: SW837 subcutaneous xenograft, tumor growth. It counts as in vivo, Mice. To be noted: Compound (A) 60 mg/kg p.o. qd x18, sotorasib 30 mg/kg p.o. How it is done: Mice were inoculated with SW837 cells subcutaneously on the right flank with the single cell suspension of 95% viable tumor cells (1×10^7) in 100 μL L-15 Matrigel mixture (1:1 ratio) without serum for the tumor development. The treatment was started when the mean tumor size reached approximately 200 mm^3 (with individual tumor range between 180-220 mm^3). Animals were randomly distributed into treatment groups of 8 animals each and dosed with vehicle (top line indicated with circles) and indicated compounds at indicated dosage and frequency shown in FIG. 6 and Table 3. In FIG. 6, single agent activity was shown with Compound (A) and sotorasib at the indicated doses. In addition, the bottom line is Compound (A) 60 mg/kg p.o. qd×18+sotorasib 30 mg/kg p.o. pd×18. […] Tumor volumes were evaluated twice per week to calculate tumor volume over time, and mice were weighed twice per week as a surrogate for signs of toxicity. Tumor growth inhibition (TGI) was calculated using the following equation TGI=(1−(Td−T0)/(Cd−C0))×100%. Td and Cd are the mean tumor volumes of the treated and control animals, and T0 and C0 are the mean tumor volumes of the treated and control animals at the start of the experiment. The tumor regression was defined as (1−(Td/T0))×100% tumor volume (TV) decrease (Td terminal TV divided by T0 initial TV). […]

In data set [6] the test system is LoVo tumor cells. Description: colorectal cancer LoVo xenograft model (KRAS mutant). The format is in vivo, BALB/c nude mice. How it is done: The antitumor activity of Compound (A) was assessed using the colorectal cancer LoVo xenograft model (KRAS mutant) with BALB/c nude mice. Each mouse was inoculated on the right flank subcutaneously with 5×10^6/100 μL LoVo tumor cells for the tumor development. When the mean tumor size reached 207 mm^3, animals were randomized into 4 groups (10 animals/group), and the treatments were initiated according to Table 4.
(§2) Study endpoints included daily body weight, clinical observations and tumor volume.

Data set [7] has as its system SW1116 tumor cells. Description: colorectal cancer SW1116 xenograft model (TP53 mutant; KRAS mutant). It counts as in vivo. How it is done: The antitumor activity of Compound (A) was assessed using the colorectal cancer SW1116 xenograft model (TP53 mutant; KRAS mutant) with NOD/SCID nude mice. Each mouse was inoculated on the right flank subcutaneously with 1×10^7 (+High Concentration Matrigel)/200 μL SW1116 tumor cells for the tumor development. When the mean tumor size reached 229 mm^3, animals were randomized into 4 groups (10 animals/group), and the treatments were initiated according to Table 6.
as §2

The test system of data set [8] is MiaPaca-2 cells. Description: MiaPaca-2 subcutaneous xenograft, tumor growth. It counts as in vivo, Mice. The note with it: MiaPaca-2 xenograft, Compound (A) 80 mg/kg p.o. qd x21, sotorasib 10 mg/kg or MRTX849 10 mg/kg p.o. On the procedure: Tumor volumes were evaluated twice per week to calculate tumor volume over time, and mice were weighed twice per week as a surrogate for signs of toxicity. Tumor growth inhibition (TGI) was calculated using the following equation TGI=(1−(Td−T0)/(Cd−C0))×100%. Td and Cd are the mean tumor volumes of the treated and control animals, and T0 and C0 are the mean tumor volumes of the treated and control animals at the start of the experiment.

Data set [9] has as its system SW1463 cells. The experiment in a line: SW1463 subcutaneous xenograft, tumor growth. The format is in vivo, Mice. To be noted: Compound (A) 80 mg/kg p.o. qd x21, sotorasib 30 mg/kg p.o. How it is done:
Mice were inoculated with SW1463 cells subcutaneously on the right flank with the single cell suspension of 95% viable tumor cells (1×10^7) in 100 μL L-15 Matrigel mixture (1:1 ratio) without serum for the tumor development. The treatment was started when the mean tumor size reached approximately 200 mm^3 (with individual tumor range between 180-220 mm^3). Animals were randomly distributed into treatment groups of 8 animals each and dosed with vehicle (top line indicated with circles) and indicated compounds at indicated dosage and frequency shown in FIG. 11 and Table 10. In FIG. 11, single agent activity was shown with Compound (A) and sotorasib at the indicated doses, and the bottom line is Compound (A) 80 mg/kg p.o. qd×21+sotorasib 30 mg/kg p.o. pd×21.
Tumor volumes were evaluated twice per week to calculate tumor volume over time, and mice were weighed twice per week as a surrogate for signs of toxicity. Tumor growth inhibition (TGI) was calculated using the following equation TGI=(1−(Td−T0)/(Cd−C0))×100%. Td and Cd are the mean tumor volumes of the treated and control animals, and T0 and C0 are the mean tumor volumes of the treated and control animals at the start of the experiment. The tumor regression was defined as (1−(Td/T0))×100% tumor volume (TV) decrease (Td terminal TV divided by T0 initial TV). […]

Results on two compounds are retold here after patent US20240335447A1, “WEE1 INHIBITOR FOR CANCER” (Recurium IP Holdings, LLC, priority 2021, published 2024).

What is called inhibition is the change of the read-out against control, counted positive when it falls.

On to `C=CCn1c(=O)c2cnc(Nc3ccc(N4CCN(C)CC4)cc3)nc2n1-c1ccc2c(n1)[C@@](O)(CC)CC2` [Compound (A)], for which the inhibition at 0.12 µM in [1] turned out to be 16.5%. The inhibition at 1 µM worked out at 47% in [2] and 28.8% in [4]. Further, the inhibition at 0.3 µM in data set [3] came to 31.5%. The “TGI % (DAY 18)” value in data set [5] came out at 72%. Also, the “TGI (%)” value in data set [6] (40 mg/kg/day p.o. qd x 28) turned out to be 21.4%; in data set [6] (60 mg/kg/day p.o. qd x 28), 32.1%; in data set [6] (80 mg/kg/day p.o. qd x 28) it was 70.3%; in [7] (40 mg/kg/day p.o. qd x 28), 49.0%; in [7] (60 mg/kg/day p.o. qd x 28) it was 75.1%; in data set [7] (80 mg/kg/day p.o. qd x 28) it was 98.5%. Besides, the mean body weights result in [6] (40, 60, 80 mg/kg/day) is listed as “no significant impact of treatments on mean body weights”. In addition, the clinical observations result in [6] (any dose group (40, 60, 80 mg/kg/day)) was “no adverse clinical observations”. Further, in [7] (40, 60, 80 mg/kg/day), the tolerability entry was “generally well tolerated for the majority of study animals”. The “TGI % (DAY 21)” value is on record as 50% in data set [8] and 57% in data set [9].
As for `C=CC(=O)N1CCN(c2nc(=O)n(-c3c(C)ccnc3C(C)C)c3nc(-c4c(O)cccc4F)c(F)cc23)[C@@H](C)C1` [sotorasib, reference compound], the inhibition at 0.04 µM in data set [1] came out at 27.8%. The inhibition at 0.35 µM in data set [2] was 39%. The inhibition at 0.01 µM in data set [3] is 24%. Besides, in data set [4], the inhibition at 0.012 µM came out at 20.7%. Moreover, the “TGI % (DAY 18)” value in data set [5] was 80%. Further, the “TGI % (DAY 21)” value is reported as 81% in [8] and 73% in data set [9].
